Reference: patent US8697662B2, “Methods for treating Kaposi sarcoma” (PTC Therapeutics, Inc., priority 2009, dated 2014)

Tests used:
[1] = test system: HT1080 xenografts; assay: Intratumoral microvessel density (CD31 immunostain) and tumor VEGF in HT1080 xenografts; format: in vivo, athymic nude mice; settings: 5 mg/kg BID oral (given as racemic mixture), 10 days
Experimental: Experimental Design. HT1080 cells (5×10^6 cells/mouse) were implanted subcutaneously in male athymic nude mice.
At the end of treatment, the mice were sacrificed. Excised tumors were assayed by ELISA for VEGF content as described in Section 9.1.1.1, and were sectioned and immunostained with an anti murine CD31 antibody that is specific for endothelial cells.

[2] = test system: MDA MB 468 xenografts; assay: Tumor perfusion by DCE-MRI in MDA MB 468 xenografts; format: in vivo, athymic nude mice; settings: 10 mg/kg oral QD
Excerpt: Experimental Design. Dynamic contrast-enhanced magnetic resonance imaging can be used preclinically and clinically to evaluate the anatomy of soft tissues, including the identification and accurate measurement of tumor volumes. In addition, evaluation of the intratumoral pharmacokinetics of contrast agents containing gadolinium can be used to measure vascular permeability characteristics. Coupling gadopentetate dimeglumine gadolinium to a […] like bovine serum albumin can reveal information about the necrotic (non-perfused) and non-necrotic (perfused) tumor volumes, and the percentage of vascular blood volume relative to the perfused tumor volume (known as the fractional blood volume [fBV]). Use of a […] tracer, gadopentetate dimeglumine, can reveal information regarding the volume transfer coefficient (K^trans), a variable that represents a combination of vascular permeability, vascular surface area, and blood flow.
Before each DCE-MRI scan, mice were injected intravenously with gadolinium-containing contrast dyes (bovine serum albumin-gadopentetate dimeglumine conjugate at ˜0.03 mmol/kg followed by gadopentetate dimeglumine at ˜0.2 mmol/kg). Baseline DCE-MRI measurements were taken on Day −1, test Compounds were administered on Day 0 through Day 5, and additional DCE-MRI measurements were taken on Days 1, 3, and 5. Image analyses were conducted with customized software. Total tumor volumes were measured by semi-automatically segmenting a region of interest around an anatomical image of the tumor. Tumor volumes of necrotic and non-necrotic tissues were measured by applying the same semi-automated segmentation process to a contrast dyed image. fBV and K^trans were computed using a standard Kety PK model.

[3] = test system: HT1080 cells; assay: Cell cycle analysis by propidium iodide flow cytometry in HT1080 cells (S-phase accumulation, Table 24); format: cell-based, human; settings: HT1080, normoxic, 18 hours
Experimental: Experimental Design. […] After treatment, cells were trypsinized, and stained with propidium iodide (PI) dye to measure DNA content of individual cells by flow cytometry. Output comprised histograms showing relative DNA content in 10,000 cells.
While compounds which cause greater than 20% of the cells to accumulate in S-phase at 100 nM are considered active, a larger percentage of cells may be accumulated in S-phase at lower doses depending on the Compound, as shown in FIG. 12 for example.

[4] = target: T1, CYP2D6 (Homo sapiens, UniProt P10635); assay: CYP inhibition in human hepatic microsomes or recombinant isoenzymes: CYP2D6; format: in vitro ADME
T1 construct: host or cells: human hepatic microsomes or human recombinant isoenzymes
T1 sequence (P10635 whole entry): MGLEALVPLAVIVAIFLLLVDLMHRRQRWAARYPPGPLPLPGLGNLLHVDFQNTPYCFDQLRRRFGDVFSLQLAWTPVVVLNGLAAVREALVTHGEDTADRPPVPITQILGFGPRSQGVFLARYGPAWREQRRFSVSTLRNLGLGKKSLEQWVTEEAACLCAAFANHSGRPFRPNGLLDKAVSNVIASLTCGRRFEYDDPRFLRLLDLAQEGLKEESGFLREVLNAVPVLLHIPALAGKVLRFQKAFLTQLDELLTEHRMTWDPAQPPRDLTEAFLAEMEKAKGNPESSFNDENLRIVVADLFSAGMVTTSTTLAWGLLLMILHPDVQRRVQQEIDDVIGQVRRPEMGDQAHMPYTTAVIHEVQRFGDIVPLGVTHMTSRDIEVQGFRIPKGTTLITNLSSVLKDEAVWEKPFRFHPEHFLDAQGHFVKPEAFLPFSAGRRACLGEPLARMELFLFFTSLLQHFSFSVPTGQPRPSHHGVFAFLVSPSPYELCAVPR
Excerpt: It is possible that in certain clinical trial subjects, such agents may need to be adjusted for dosing or replaced by alternative agents that are not metabolized by CYP2D6, particularly when such agents may have a low therapeutic index.

COc1ccc(C2c3[nH]c4ccc(Cl)cc4c3CCN2C(=O)Oc2ccc(Cl)cc2)cc1 (racemic) [Compound #10]
tumor vessel count (CD31 immunostain) [1]: unchanged
mean K^trans in non-necrotic tissue (in words) ([2]; Day -1 to Day 5): decreased
mean non-necrotic tumor volume (in words) ([2]; Day -1 to Day 5): decreased
mean total tumor volume (DCE-MRI), change (in words) ([2]; Day -1 to Day 5): little mean change
mean necrotic (non perfused) tumor volume (in words) ([2]; significant by Day 1): rapidly increased
mean tumor fBV in non-necrotic tissue (in words) ([2]; significant vs vehicle on Day 5): declined after Day 3
concentration from which an accumulation of cells in S phase can be observed [3]: ≥ 1 nM
cell cycle distribution, DNA content (in words) ([3]; Compound #10 0.3 nM to 100 nM, Compound 1205 10 nM): induced a redistribution of the cycling characteristics of the cell population
inhibition of CYP2D6 isoenzyme (in words) [4]: inhibits the activity
